Columns and labels:
P-glycoprotein (ABCB1) [1] = target: T1, P-glycoprotein (ABCB1) (Homo sapiens, UniProt P08183); assay: Inhibition of human P-glycoprotein transfected in pig LLC-GA5-COL150 cells assessed as quinidine transport from apical to basolateral side at 30 uM preincubated for 30 mins followed by quinidine addition to apical side measured after 60 mins; type: cell-based; conditions: LLC-PK1, probe quinidine
[2] = target: ATP-dependent translocase ABCB1 (Homo sapiens, UniProt P08183); assay: Inhibition of human P-glycoprotein transfected in pig LLC-GA5-COL150 cells assessed as quinidine transport from apical to basolateral side preincubated for 30 mins followed by quinidine addition to apical side measured after 60 mins; type: cell-based; parameters: log(activity): scale not given here; conditions: for log(activity): human, llc-ga5-col150, 1 h
Sequence of ATP-dependent translocase ABCB1 (P08183 whole entry): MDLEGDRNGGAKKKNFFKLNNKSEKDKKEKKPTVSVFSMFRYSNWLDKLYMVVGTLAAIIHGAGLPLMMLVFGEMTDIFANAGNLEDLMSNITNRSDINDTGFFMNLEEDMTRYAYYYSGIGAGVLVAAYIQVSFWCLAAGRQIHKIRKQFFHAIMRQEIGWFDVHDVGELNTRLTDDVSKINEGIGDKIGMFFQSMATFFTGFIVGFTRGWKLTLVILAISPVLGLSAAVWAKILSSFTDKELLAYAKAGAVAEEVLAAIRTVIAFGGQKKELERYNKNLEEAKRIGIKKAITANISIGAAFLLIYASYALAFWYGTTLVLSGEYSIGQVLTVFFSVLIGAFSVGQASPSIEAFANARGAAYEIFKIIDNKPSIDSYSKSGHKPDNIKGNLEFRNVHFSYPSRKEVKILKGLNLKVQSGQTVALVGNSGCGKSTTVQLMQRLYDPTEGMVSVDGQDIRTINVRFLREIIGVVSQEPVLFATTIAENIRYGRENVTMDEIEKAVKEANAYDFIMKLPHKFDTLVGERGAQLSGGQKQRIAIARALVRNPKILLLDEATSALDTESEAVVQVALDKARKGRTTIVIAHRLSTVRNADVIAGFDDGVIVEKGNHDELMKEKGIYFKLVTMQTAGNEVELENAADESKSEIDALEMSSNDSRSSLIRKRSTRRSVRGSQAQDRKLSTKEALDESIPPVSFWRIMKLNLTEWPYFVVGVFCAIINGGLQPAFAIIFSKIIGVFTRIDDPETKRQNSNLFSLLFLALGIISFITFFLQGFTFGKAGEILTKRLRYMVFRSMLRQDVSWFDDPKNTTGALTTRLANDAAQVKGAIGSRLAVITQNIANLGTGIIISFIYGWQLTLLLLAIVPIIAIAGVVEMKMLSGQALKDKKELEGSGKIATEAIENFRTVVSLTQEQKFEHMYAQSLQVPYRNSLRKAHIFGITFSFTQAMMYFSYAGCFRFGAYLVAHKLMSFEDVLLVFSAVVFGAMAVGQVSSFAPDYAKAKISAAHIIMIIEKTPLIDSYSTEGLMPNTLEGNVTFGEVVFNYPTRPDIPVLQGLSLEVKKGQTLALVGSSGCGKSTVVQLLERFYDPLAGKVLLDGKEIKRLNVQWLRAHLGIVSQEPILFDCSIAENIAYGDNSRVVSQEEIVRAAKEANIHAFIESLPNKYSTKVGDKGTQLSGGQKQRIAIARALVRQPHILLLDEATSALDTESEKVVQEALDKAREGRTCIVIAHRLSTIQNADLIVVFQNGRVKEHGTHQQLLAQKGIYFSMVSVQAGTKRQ

[3] = Lipophilicity , logP of the compound; type: physicochemical; conditions: octanol/water
P-glycoprotein (ABCB1) [4] = target: T1, P-glycoprotein (ABCB1); assay: Inhibition of human P-glycoprotein transfected in pig LLC-GA5-COL150 cells assessed as quinidine transport from apical to basolateral side at 2 uM preincubated for 30 mins followed by quinidine addition to apical side measured after 60 mins; conditions: LLC-PK1, probe quinidine

T1 sequence (P08183 whole entry): as above

Row | inhibition at 1 h, 30 µM (P-glycoprotein (ABCB1) [1]) | log(activity) [2] | IC50 [2] | logP [3] | inhibition at 1 h, 2 µM (P-glycoprotein (ABCB1) [4]) | Structure (SMILES)
1 | 5.4% | -1.25 |  |  |  | CC(C)(C)N(NC(=O)c1ccccc1)C(=O)c1ccccc1Cl
2 | 14.2% | -0.78 |  | 4.31 |  | Cc1cc(C)cc(C(=O)N(NC(=O)c2ccc(Cl)cc2)C(C)(C)C)c1
3 | 5.3% | -1.25 |  |  |  | CC(=O)c1ccc(C(=O)NN(C(=O)c2ccccc2Cl)C(C)(C)C)cc1
4 | 4.2% | -1.36 |  | 2.35 |  | CC(C)(C)N(NC(=O)c1c(F)cccc1F)C(=O)c1ccccc1Cl
5 | 4.9% | -1.29 |  |  |  | CC(C)(C)N(NC(=O)c1ccc(C#N)cc1)C(=O)c1ccccc1Cl
6 | 7.3% | -1.1 |  |  |  | Cc1ccc(C(=O)NN(C(=O)c2ccccc2Cl)C(C)(C)C)cc1
7 | 23% | -0.52 |  |  |  | CCc1ccc(C(=O)NN(C(=O)c2ccccc2Cl)C(C)(C)C)cc1
8 | 45% | -0.09 |  | 3.75 |  | CC(C)(C)N(NC(=O)c1cccc(Cl)c1Cl)C(=O)c1ccccc1Cl
9 | 9.3% | -0.99 |  | 3.4 |  | Cc1cccc(C(=O)NN(C(=O)c2ccccc2Cl)C(C)(C)C)c1C
10 | 12.2% | -0.86 |  | 3.46 |  | COc1cccc(C(=O)NN(C(=O)c2ccccc2Cl)C(C)(C)C)c1C
11 | 26.8% | -0.44 | 73.6 µM | 3.4 |  | Cc1ccc(C)c(C(=O)NN(C(=O)c2ccccc2Cl)C(C)(C)C)c1
12 | 20.8% | -0.58 |  | 3.65 |  | Cc1ccc(C(=O)NN(C(=O)c2ccccc2Cl)C(C)(C)C)cc1C
13 | 34.2% | -0.28 | 58.1 µM | 3.75 |  | COc1cccc(C(=O)NN(C(=O)c2cc(C)cc(C)c2)C(C)(C)C)c1
14 | 30.9% | -0.35 |  | 3.95 |  | Cc1ccc(C(=O)NN(C(=O)c2cc(C)cc(C)c2)C(C)(C)C)cc1
15 | 5.3% | -1.25 |  |  |  | CC(C)(C)N(NC(=O)c1ccccc1Cl)C(=O)c1ccccc1Cl
16 | 10.1% | -0.95 |  | 2.91 |  | CC(C)(C)N(NC(=O)c1ccccc1Br)C(=O)c1ccccc1Cl
17 | 21.8% | -0.55 |  | 3.11 |  | CC(C)(C)N(NC(=O)c1ccccc1I)C(=O)c1ccccc1Cl
18 | 7.6% | -1.08 |  |  |  | CC(C)(C)N(NC(=O)c1cccc(F)c1)C(=O)c1ccccc1Cl
19 | 33% | -0.31 |  | 3.62 |  | CC(C)(C)N(NC(=O)c1cccc(Br)c1)C(=O)c1ccccc1Cl
20 | 9.5% | -0.98 |  | 2.48 |  | CC(C)(C)N(NC(=O)c1cccc(C#N)c1)C(=O)c1ccccc1Cl
21 | 11.5% | -0.89 |  |  |  | Cc1cccc(C(=O)NN(C(=O)c2ccccc2Cl)C(C)(C)C)c1
22 | 10.8% | -0.92 |  | 2.81 |  | COc1cccc(C(=O)NN(C(=O)c2ccccc2Cl)C(C)(C)C)c1
23 | 4.8% | -1.3 |  |  |  | CC(C)(C)N(NC(=O)c1ccc(F)cc1)C(=O)c1ccccc1Cl
24 | 16.2% | -0.71 |  |  |  | CC(C)(C)N(NC(=O)c1ccc(C(F)(F)F)cc1)C(=O)c1ccccc1Cl
25 | 6.9% | -1.13 |  | 2.67 |  | CC(C)(C)N(NC(=O)c1c(F)cccc1Cl)C(=O)c1ccccc1Cl
26 | 2.5% |  |  | 3.64 |  | Cc1cc(C)cc(C(=O)N(NC(=O)c2ccc(F)c(F)c2F)C(C)(C)C)c1

Row | inhibition at 1 h, 30 µM (P-glycoprotein (ABCB1) [1]) | log(activity) [2] | IC50 [2] | logP [3] | inhibition at 1 h, 2 µM (P-glycoprotein (ABCB1) [4]) | Structure (SMILES)
27 | 6.7% | -1.14 |  | 2.37 |  | COc1ccccc1C(=O)NN(C(=O)c1ccccc1Cl)C(C)(C)C
28 | 44.2% | -0.1 | 46.7 µM | 3.75 |  | CC(C)(C)N(NC(=O)c1cc(Cl)ccc1Cl)C(=O)c1ccccc1Cl
29 | 50.9% | 0.02 | 39.9 µM | 4.28 |  | CCOc1cccc(C(=O)NN(C(=O)c2cc(C)cc(C)c2)C(C)(C)C)c1
30 | 63.9% | 0.25 |  | 3.87 |  | CC(C)(C)N(NC(=O)c1cccc(I)c1)C(=O)c1ccccc1Cl
31 | 97.2% |  |  | 4.29 |  | CC(C)(C)N(NC(=O)c1cc(Cl)cc(Cl)c1)C(=O)c1ccccc1Cl
32 | 0.9% |  |  | 4.66 |  | Cc1cc(C)cc(C(=O)N(NC(=O)c2ccc(C(F)(F)F)cc2)C(C)(C)C)c1
33 | 5.8% | -1.21 |  | 3.03 |  | CC(C)(C)N(NC(=O)c1c(Cl)cccc1Cl)C(=O)c1ccccc1Cl
34 | 7% | -1.13 |  | 2.84 |  | CSc1ccccc1C(=O)NN(C(=O)c1ccccc1Cl)C(C)(C)C
35 | 58.4% | 0.15 | 15.2 µM | 4.86 |  | CCCc1ccc(C(=O)NN(C(=O)c2cc(C)cc(C)c2)C(C)(C)C)cc1
36 | 80.3% | 0.61 | 12.5 µM | 3.77 |  | CC(C)(C)N(NC(=O)c1ccccc1-c1ccccc1)C(=O)c1ccccc1Cl
37 | 0.5% |  |  | 3.84 |  | Cc1cc(C)cc(C(=O)N(NC(=O)c2cccc(O)c2C)C(C)(C)C)c1
38 | 22.4% | -0.54 |  | 3.67 |  | Cc1cc(C)cc(C(=O)NN(C(=O)c2ccccc2Cl)C(C)(C)C)c1
39 | 15.6% | -0.73 |  | 3.02 |  | CC(C)(C)N(NC(=O)c1ccccc1C(F)(F)F)C(=O)c1ccccc1Cl
40 | 1% |  |  | 3.34 |  | Cc1cc(C)cc(C(=O)N(NC(=O)c2cccc(O)c2)C(C)(C)C)c1
41 | 36.8% | -0.23 | 48.2 µM | 3.98 |  | Cc1cccc(C(=O)NN(C(=O)c2cc(C)cc(C)c2)C(C)(C)C)c1
42 | 54.2% | 0.07 |  | 4.88 |  | Cc1cc(C)cc(C(=O)N(NC(=O)c2ccc(C)c(C)c2C)C(C)(C)C)c1
43 | 98.9% |  |  | 4.25 |  | CC(C)(C)N(NC(=O)c1ccc(Cl)c(Cl)c1)C(=O)c1ccccc1Cl
44 | 1.9% |  |  | 3.71 |  | Cc1cc(C)cc(C(=O)N(NC(=O)c2cc(F)c(F)cc2F)C(C)(C)C)c1
45 | 33.4% | -0.3 | 43.8 µM | 3.7 |  | CC(C)(C)N(NC(=O)c1cccc(C(F)(F)F)c1)C(=O)c1ccccc1Cl
46 | 16.6% | -0.7 | 64.4 µM | 2.73 |  | CC(C)(C)N(NC(=O)c1cccc([N+](=O)[O-])c1)C(=O)c1ccccc1Cl
47 | 22.3% | -0.54 | 79.9 µM | 3.98 |  | Cc1cc(C)cc(C(=O)N(NC(=O)c2ccccc2C)C(C)(C)C)c1
48 | 40.7% | -0.16 |  | 3.71 |  | CC(C)(C)N(NC(=O)c1ccc(Cl)cc1Cl)C(=O)c1ccccc1Cl
49 | 49% | -0.02 |  | 4.91 |  | Cc1cc(C)cc(C(=O)N(NC(=O)c2ccc(C(C)C)cc2)C(C)(C)C)c1
50 | 1.7% |  |  | 1.99 |  | CC(C)(C)N(NC(=O)c1ccccc1[N+](=O)[O-])C(=O)c1ccccc1Cl
51 |  |  |  |  | 100% | COc1cc2c(cc1OC)CN(CCc1ccc(NC(=O)c3cccc4c(=O)c5cccc(OC)c5[nH]c34)cc1)CC2

Row | Structure (SMILES) | inhibition at 1 h, 30 µM (P-glycoprotein (ABCB1) [1]) | log(activity) [2] | IC50 [2] | logP [3] | inhibition at 1 h, 2 µM (P-glycoprotein (ABCB1) [4])
52 | Cc1cc(C)cc(C(=O)N(NC(=O)c2ccccc2)C(C)(C)C)c1 | 17% | -0.69 | 100 µM |  | 
53 | Cc1cc(C)cc(C(=O)N(NC(=O)c2cccc(C)c2C)C(C)(C)C)c1 | 41.1% | -0.16 |  | 4.43 | 
54 | CC(C)(C)N(NC(=O)c1ccccc1F)C(=O)c1ccccc1Cl | 5.9% | -1.21 |  |  | 
55 | CC(C)(C)N(NC(=O)c1cccc(Cl)c1)C(=O)c1ccccc1Cl | 27.3% | -0.43 | 45.7 µM |  | 
56 | CCCc1ccc(C(=O)NN(C(=O)c2ccccc2Cl)C(C)(C)C)cc1 | 48.7% | -0.02 |  |  | 
57 | COc1ccc(C(=O)NN(C(=O)c2ccccc2Cl)C(C)(C)C)cc1 | 6.9% | -1.13 |  |  | 
58 | COc1cccc(C(=O)NN(C(=O)c2cc(C)cc(C)c2)C(C)(C)C)c1C [METHOXYFENOZIDE] | 32% | -0.33 | 44.3 µM |  | 
59 | CCc1ccc(C(=O)NN(C(=O)c2cc(C)cc(C)c2)C(C)(C)C)cc1 [TEBUFENOZIDE] | 53.3% | 0.06 | 21.5 µM |  | 

— ChEMBL document CHEMBL3813651, “Structure-activity relationships of dibenzoylhydrazines for the inhibition of P-glycoprotein-mediated quinidine transport” (Bioorg Med Chem, 2016)
